The assay has as its target T1, sweet taste receptor (endogenously expressed T1R2/T1R3) (Homo sapiens, UniProt Q7RTX0+Q8TE23).
T1 construct: endogenous in cells; host or cells: HuTu (ATCC HTB-40), H716 (ATCC CCL-251), HEK 293T (ATCC CRL-11268); some with prior UV treatment
T1 sequence (Q8TE23 20-839): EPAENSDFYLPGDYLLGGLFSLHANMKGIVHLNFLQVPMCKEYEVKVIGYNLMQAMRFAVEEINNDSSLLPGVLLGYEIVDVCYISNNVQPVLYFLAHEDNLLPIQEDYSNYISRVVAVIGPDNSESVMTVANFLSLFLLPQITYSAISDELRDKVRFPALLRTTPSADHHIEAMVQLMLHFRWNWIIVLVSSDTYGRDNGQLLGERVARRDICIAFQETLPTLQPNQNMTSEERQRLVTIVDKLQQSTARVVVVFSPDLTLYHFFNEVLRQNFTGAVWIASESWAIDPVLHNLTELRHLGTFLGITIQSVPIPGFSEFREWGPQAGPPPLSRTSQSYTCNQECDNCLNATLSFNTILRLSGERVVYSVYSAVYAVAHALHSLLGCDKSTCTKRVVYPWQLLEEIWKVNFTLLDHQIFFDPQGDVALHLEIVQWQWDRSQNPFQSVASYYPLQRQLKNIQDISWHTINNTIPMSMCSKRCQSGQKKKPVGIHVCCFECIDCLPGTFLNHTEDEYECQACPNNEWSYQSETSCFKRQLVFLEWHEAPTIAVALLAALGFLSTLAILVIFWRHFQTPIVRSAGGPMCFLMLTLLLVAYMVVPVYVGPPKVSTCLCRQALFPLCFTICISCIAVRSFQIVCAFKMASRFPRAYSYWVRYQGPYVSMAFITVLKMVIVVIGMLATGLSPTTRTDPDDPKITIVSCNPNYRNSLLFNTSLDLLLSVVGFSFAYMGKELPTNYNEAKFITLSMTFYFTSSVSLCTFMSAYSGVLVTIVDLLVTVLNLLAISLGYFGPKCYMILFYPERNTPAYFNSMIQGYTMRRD
T1 sequence (Q7RTX0 21-852): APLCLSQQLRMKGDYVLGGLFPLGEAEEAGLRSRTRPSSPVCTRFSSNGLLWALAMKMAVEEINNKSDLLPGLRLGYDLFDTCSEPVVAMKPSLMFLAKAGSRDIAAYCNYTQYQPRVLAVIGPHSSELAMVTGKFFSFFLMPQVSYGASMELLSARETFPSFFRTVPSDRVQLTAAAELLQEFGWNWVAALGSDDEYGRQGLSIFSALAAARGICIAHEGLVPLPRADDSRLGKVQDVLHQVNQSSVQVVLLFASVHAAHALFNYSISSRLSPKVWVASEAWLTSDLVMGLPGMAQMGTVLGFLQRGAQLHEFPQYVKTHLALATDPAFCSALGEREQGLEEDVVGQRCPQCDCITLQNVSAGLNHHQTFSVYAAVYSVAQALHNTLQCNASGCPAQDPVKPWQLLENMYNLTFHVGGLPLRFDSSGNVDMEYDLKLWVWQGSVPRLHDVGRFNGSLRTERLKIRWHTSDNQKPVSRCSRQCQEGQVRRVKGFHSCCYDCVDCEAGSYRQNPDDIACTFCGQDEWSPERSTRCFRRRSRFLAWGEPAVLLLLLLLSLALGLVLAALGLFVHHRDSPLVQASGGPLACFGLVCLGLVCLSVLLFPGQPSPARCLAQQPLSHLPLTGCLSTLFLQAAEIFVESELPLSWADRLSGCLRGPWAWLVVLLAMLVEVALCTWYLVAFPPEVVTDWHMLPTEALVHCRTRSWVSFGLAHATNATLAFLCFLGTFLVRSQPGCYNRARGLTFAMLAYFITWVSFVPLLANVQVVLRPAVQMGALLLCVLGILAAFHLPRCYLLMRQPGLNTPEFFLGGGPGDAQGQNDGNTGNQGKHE
Kind of assay: calcium flux response to fructose of cells cultured from individual isolated HuTu, H716 and 293T cells. The assay is classed as cell-based. The note with it: fructose final concentration 15 mM, control response subtracted. As for the experimental part:
FIGS. 28 A-C depict representative traces of the functional cell-based response of cells of the invention to the addition of fructose (to a final concentration of 15 mM) compared to background. Cells cultured from individual isolated cells were tested (black traces) compared to control cells (gray traces). […] The cell-based assay was designed to report calcium flux using a fluorescent calcium signaling dye. Fluorescent assay response is plotted along the Y-axis and time is indicated along the X-axis. Arrows indicate the timepoint at which fructose was added. FIG. 28A depicts traces from cells cultured from an individual HuTu cell compared to control. FIG. 28B depicts traces from cells cultured from an individual H716 cell compared to control. FIG. 28C depicts traces from cells cultured from an individual 293T cell compared to control.
In a specific aspect, provided herein is a method for isolating a cell that endogenously expresses a sweet taste receptor T1R2 subunit and/or sweet taste receptor T1R3 subunit, wherein the method comprises the steps of: • a) providing a population of cells; • b) introducing into the cells a signaling probe or molecular beacon that detects expression of T1R2 and/or introducing into the cells a molecular beacon that detects expression of T1R3; and • c) isolating cells that express a sweet taste receptor T1R2 subunit and/or sweet taste receptor T1R3 subunit. […]
On the technique in general: Calcium flux is commonly read through the fluorescence of an indicator in the cells.

The values that follow come from patent publication US20170052170A1, “NOVEL CELL LINES AND METHODS” (priority 2009, published 2017).

With `O=C(CO)[C@@H](O)[C@H](O)[C@H](O)CO` [fructose], the “functional cell-based (calcium flux) response compared to control cells” value is given as “higher response”.
